Assay results as given in patent publication US20060025377A1, “Inhibitor of angiogenesis and kit for treating cancer comprising the inhibitor” (priority 2002, published 2006).

Assays:
[1] = test system: wound region of rabbit ears (granulation tissue, capillaries); assay: In vivo wound healing assay (rabbit ear wounds); set-up: species or system New Zealand White rabbits; details: for Area of granulation tissue / Number of blood vessels / increment of the area of granulation tissue, in words / increment of the number of blood vessels, in words: 5 μM; for Area of granulation tissue / Number of blood vessels: spotted or injected intradermally to wound, negative control = 100%; for increment of the area of granulation tissue, in words / increment of the number of blood vessels, in words: comment on Table 1
Experimental: Female New Zealand White rabbits (body weight 2.0 kg) were used as experimental animals in this assay. PBS solution containing 0.1% BSA (BSA-PBS solution) was prepared as control solution for negative control group (comparative example 1). sphingosylphosphorylcholine (comparative example 2), phytosphingosine (comparative example 3), N-acethylphytosphingosine (comparative example 4) as positive control group, and tetraacetyl phytosphingosine (example 1) were dissolved in ethanol or methanol respectively. Each portion of the solutions was added to silicone glass tube. Then, it was charged with N2 gas, and added 0.1% BSA-PBS solution. After coupling them with water sonicator and vortex, these solutions were spotted on and injected intradernally to wound region of experimental animals. At the same time, to study an effect of the angiogenesis as concentrations of tetraacethylsphingosine, the animal was treated with 0.1 μM, 1 μM, 2 μM and 5 μM of tetraacethylsphingosine, and campared with the results. Experimental animals were put into special stainless cages which was designed suitably to assay experimental animals, anesthetized by injecting ketanine (3-4 mg/kg) intramuscularly. The hair and corneous tissue of innerside of both ears were removed with shaving and washing, and then were disinfected with 70% ethanol. Four wound regions per ear were formed by using 6 mm punch for sldn histological examination (Stiefel, Germany) under sterile condition if possible, and each wound region was spotted or injected intradennally 30-50 μl of the control solution or each treatment material. Wound regions were sealed with cathereep (Nichiban Co., Tokyo Japan) which was cut in size which are greater than that of wound region to prevent contamination of the wound regions and formation of crust. Then, the wound regions were protected with 2×2 gauze, and ears of rabbit were bandaged with elastopore (Nichiban Co., Tokyo Japan). Subsequently, the rabbits were bred in a cage per a rabbit. After 48 hrs, same procedure was repeated. On 4 days and 8 days after forming wound regions, sacrificing the rabbits and treating tissue for histological study. For histological study, wound tissues were fixed with 10% formalin, cut it in half longitudinally and made paraffin block. Then, approximately 5 μm of segment was made, attached it to slide and stained with hematoxylin and eosin to observe a change of epidermis and dermis, and stained with Massons Trichrome to observe a degree of collagen formation of granulation tissue.
First, stained tissue specimen was calibrated with ocular micrometer of optical microscope for image analysis. Then, After photographing each histological change aspects with digital camera under 40× and 100× objective lens and saving them on computer (Pentium III), image analysis was carried out with Scion Image for Windows software which was provided by (C) 2000 Scion corporation as follows: that is, degree of epidermis migration could be determined by measuring the distance from left to right boundary of wound, and thickness of newly formed epidermis could be determined by measuring the thickness of three spots in 1 mm of pitch and averaging measured values. To compare with degree of granulation tissue formation of dermis, three methods were used: 1) A method of measuring total area of newly formed granulation tissue and comparing with it; 2) A method of counting the number of cells such as fibroblast presented in six spots of center region of wound under high magnification (100×) and comparing with it; and 3) A method of determining degree of angiogenesis by counting the number of capillaries in granulation tissue in a same way as described above. If there was eschar, it wasn't determined. The data obtained from the negative control group, the positive control group and the experinental group were analyzed statistically by carrying out paired student's t test. […]

[2] = test system: endothelial cells; assay: Migration assay of endothelial cells (Transwell); format: cell-based; details: 0.1 μM, 1 μM and 5 μM; 2 hrs; fewer migrated cells with increasing concentration; FIG. 6 and FIG. 7
Experimental: Transwell membranes were coated with 0.2% gelatin, and then were left for 12 hrs at 4° C. The membrane for control group was treated with BSA-PBS as described in the above examples, whereas the membranes for experimental group were treated with 0.1 μM, 1 μM and 5 μM of tetraacetylphytosphingosine solution according to the present invention respectively as described in the above examples. After incubating these membranes for 2 hrs, staining them with Diff Quick solution, and then observing them on slide glass.

[3] = test system: HUVEC (human umbilical vein endothelial cell); assay: Angiogenesis test of HUVEC (tube formation test); format: cell-based; details: FIG. 4 and FIG. 5
Experimental: Above suspension procedure was repeated twice.
Matrigel was prepared as follows: First, collagen solution was prepared by mixing commercially available acid-soluble porcine type I collagen (3.0 mg/ml), 5× DMEM and buffer (0.05 N NaOH, 2.2% NaHCO3, 200 mM HEPES; 7:2:1), loaded to 24 well or 96 well (100-300 μl/well) dividedly, and then incubated for approximately 10 mins to form a gel due to polymerization of collagen. Primary culture was carried to obtain HUVEC (those which were passaged five times), removed cells at 37° C., washed cells with PBS, detached cells with trypsin/EDTA, loaded cells to wells (4-6×10^4 cells/well), and then fiuther incubated for 12-18 hrs.

## CCCCCCCCCCCCCC[C@@H](O)[C@@H](O)[C@H](CO)NC(C)=O [NAPS, N-acethylphytosphingosine]
[1]
  Area of granulation tissue: 212%
  Number of blood vessels: 96%

## CCCCCCCCCCCCCC[C@@H](O)[C@@H](O)[C@@H](N)CO [PS, phytosphingosine]
[1]
  Area of granulation tissue: 112%
  Number of blood vessels: 106%

## CCCCCCCCCCCCC/C=C/[C@@H](O)[C@@H](N)COP(=O)([O-])OCC[N+](C)(C)C [SPC, sphingosylphosphorylcholine]
[1]
  Area of granulation tissue: 151%
  Number of blood vessels: 148%
  increment of the area of granulation tissue, in words: prompted increment
  increment of the number of blood vessels, in words: prompted increment

## tetraacetylphytosphingosine [TAPS]
[2]
  migration of endothelial cells, in words: migration of endothelial cells were inhibited
[3]; 0.1 μM
  formation of blood vessels (tube formation), in words: inhibited effectively a formation of blood vessels
[3]; 1 μM
  formation of blood vessels (tube formation), in words: inhibited nearly completely a formation of blood vessels
[1]; 0.1 μM, 1 μM, 2 μM and 5 μM, 4 days after treatment, vs negative control, FIG. 1
  number of blood vessels (angiogenesis), in words: inhibited angiogenesis greatly
[1]; 0.1 μM, 1 μM, 2 μM and 5 μM, 4 days after treatment, vs negative control, FIG. 2
  area of granulation tissue, in words: decreased the area of granulation tissue
[1]
  Area of granulation tissue: 76%
  Number of blood vessels: 31%
  increment of the area of granulation tissue, in words: inhibited increment
  increment of the number of blood vessels, in words: inhibited increment
